pEC50: −log10 of the molar value. Where a name gives a salt, the structure may show the parent alone. Read-outs that look alike come from different tables or passages of the source.
Legend:
adrenergic β-2 receptors = assay: cAMP production in human PC3 cells; conditions: PC-3, read-out: EC50 for cAMP production
[1] = test system: Antigen-specific T-cell lines; assay: Antigen-specific T-cell lines: proliferation, apoptosis, cytokine secretion; assay type: cell-based, human
Protocol: Parallel lines were generated in the presence of propranolol. Cells were evaluated for proliferation, apoptosis, and cytokine secretion.

[2] = assay type: physicochemical
Source text: The chemical and optical purities of all batches used for biological studies have been >98%. […] No polymorphs have been detected.

[3] = test system: M-form phenolsulfotransferase (M-PST); assay: Sulfotransferase activity in horse liver cytosol / intestinal mucosa; assay type: in vitro ADME
Protocol: Method: The livers from recently slaughtered horses are homogenized and the cytosol is prepared by differential centrifugation. The protein concentration of the cytosolic preparation is determined by the Lowry method (Lowry O. H. et al.: Protein measurement with the foline phenol reagent. J. Biol. Chem. 1951, 193: 265-275). […] Cytosol from the livers is incubated at 15 °C. After removal of unmetabolized beta-2 agonist with ethyl acetate, free drug is released from the conjugate using sulfatase. The concentrations of beta-2 agonist enantiomers are analyzed by chiral HPLC assay.
Results from tests with intestinal mucosa yielded the same surprising results.

[4] = horse
[5] = test system: isolated guinea pig tracheas; assay: Inhibition of airway smooth muscle contractions, isolated guinea pig tracheas; conditions: Cavia porcellus, read-out: pD2 (converted)
Protocol: The following study was performed in vitro, using isolated guinea pig tracheas. The airway smooth muscle tissues were contracted by carbachol or ovalbumin or histamine. […] Results: pD2 Values of the Enantiomers of Albuterol

[6] = test system: equine bronchial smooth muscle; assay: Carbachol-induced contractions of equine bronchial smooth muscle (hyperreactivity); design: species or system horse; conditions: 37° C.
Protocol: In this study, segments of equine bronchial smooth muscle are mounted on special holders and immersed in a physiologic solution containing glucose and aerated with 95% O2 and 5% CO2 at 37° C. Isometric tension is measured with force transducers and registered electronically. The effects of R-, RS- and S-albuterol on carbachol-induced contractions are studied.

[7] = test system: isolated human leukocytes (buffy coat); assay: A23187-stimulated histamine release from isolated human leukocytes; assay type: cell-based; conditions: for inhibition of release of the marker inflammatory mediator histamine: A23187 5 μM, 20 min/37° C., 4×10^−4 M to 10^−6 M
Protocol: In this study, histamine was the marker compound for inflammatory mediators that are released from pro-inflammatory cells. The inhibition of stimulated histamine release from isolated human leukocytes (buffy coat) by test articles was studied. The method is a modification of the methodology described by Nolte et al. (1988). Leukocytes were obtained from healthy volunteers and inflammatory mediator release was induced by incubation (20 min/37° C.) with the Ca-ionophore A23187 (5 μM) in the presence or absence of a test article. Histamine was analyzed by enzyme-immuno assays (E.I.A.), using commercially available kits and a microplate reader (MRX, Dynatech). The test articles were tested in each assay at five concentrations ranging from 4×10^−4 M to 10^−6 M, in duplicate. In the same experiment, a reference compound was tested in duplicate at eight concentrations to obtain an inhibition curve to validate the experiment (not shown here). Results: […]

pro-inflammatory cells = conditions: cited from earlier work
[8] = contractile stimulus Carbachol (10^-6 M)
[9] = contractile stimulus Histamine (10^-5 M)
[10] = contractile stimulus Ovalbumin (10-5 g/ml)

Row | SMILES | pEC50 (adrenergic β-2 receptors) | solubility in water [2] | EC50 [5, 8] | EC50 [5, 9] | EC50 [5, 10] | effect on equine bronchial smooth muscle [6] | inhibition of release of the marker inflammatory mediator histamine [7] | other results
1 | CC(C)(C)NCC(O)c1ccc(O)c(CO)c1 (racemic) [RS-albuterol] | 6.68 |  |  |  |  |  |  | influence on proliferation [1]: minimal influences; cytokine production ([1]; 10(−8) mol/L each isomer): no influence
2 | CC(C)(C)NC[C@H](O)c1ccc(O)c(CO)c1.CC(C)(C)NC[C@H](O)c1ccc(O)c(CO)c1.O=S(=O)(O)O [R(−)-albuterol sulfate] |  | readily soluble |  |  |  |  |  | 

Further lines, with some results ahead:

Row | pEC50 (adrenergic β-2 receptors) | solubility in water [2] | EC50 [5, 8] | EC50 [5, 9] | EC50 [5, 10] | SMILES | effect on equine bronchial smooth muscle [6] | inhibition of release of the marker inflammatory mediator histamine [7] | other results
3 |  | readily soluble |  |  |  | CC(C)(C)NC[C@H](O)c1ccc(O)c(CO)c1.Cl [R(−)-albuterol hydrochloride] |  |  | 
4 | 7.00 |  | 79.4 nM | 20 nM | 5.01 nM | CC(C)(C)NC[C@H](O)c1ccc(O)c(CO)c1 [R(−)-albuterol, (R)-[…]^1-[[(1,1-dimethylethyl)amino]methyl]-4-hydroxy-1,3-benzene-dimethanol, sulfate (2:1) (salt)] | causing bronchorelaxation | Neither R(−)-albuterol nor S(+)-albuterol inhibited the release | intestinal or hepatic metabolism by M-form phenolsulfotransferase [3]: not to undergo intestinal or hepatic metabolism; inversion to S-albuterol [4]: no such inversion takes place; T-cell proliferation ([1]; 10(−7) mol/L, % of control): 61.1%±9.0%; IL-2 and IFN-gamma production ([1]; 10(−8) mol/L): inhibited; T-cell proliferation ([1]; 10(−8) mol/L): 77.0%±9.7%
5 | 4.85 |  | 79400 nM | 5010 nM | 31600 nM | CC(C)(C)NC[C@@H](O)c1ccc(O)c(CO)c1 [S(+)-albuterol] | causing bronchial hyperreactivity | Neither R(−)-albuterol nor S(+)-albuterol inhibited the release | facilitation of release of inflammatory mediators (pro-inflammatory cells): facilitating the release; increase of release of histamine from leukocytes ([7]; at concentrations of 10 μM and higher): significantly and dose-dependently increased the release; influence on T-cell proliferation ([1]; S(+)-albuterol alone): No influence was observed
